Counter-ions that a name gives are not always drawn.
What follows are compounds tested on Acinetobacter baumannii ATCC17978 (assay: Antimicrobial susceptibility testing: 90% growth inhibitory concentration (IC90) determination, Iso-Sensitest broth). Conditions: 90% growth inhibitory concentration, Acinetobacter baumannii ATCC17978, Iso-Sensitest broth, OD 600 nm over 16 h; read-out: ATCC17978 IC90.
Assay type: cell-based
Procedure, shortened: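 A. baumannii ATCC17978 grown in Iso-Sensitest broth across 10 compound concentrations at 35±2 °C.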
Compound `COc1ccc(-c2cnc3c(Nc4ccc(C(=O)N5CCCC(CN(C)C)C5)c(C)c4)nccn23)cc1F` (centres unmarked) [Example 252, [3-[(dimethylamino)methyl]pi-peridin-1-yl]-[4-[[3-(3-fluoro-4-methoxyphenyl)imidazo[1,2-a]pyrazin-8-yl]amino]-2-methylphenyl]methanone] has an IC90 of 2000 nM.
`CNCCNC(=O)[C@@H]1CCN(C(=O)c2ccc(Nc3nccn4c(-c5ccc(OC)c(F)c5)cnc34)cc2C)C[C@H]1O` (racemic) [Example 449, rac-(3R,4S)-1-[4-[[3-(3-fluoro-4-methoxyphenyl)imidazo[1,2-a]pyrazin-8-yl]amino]-2-methylbenozyl]-3-hydroxy-N-[2-(methylamino)ethyl]piperidin-4-carboxamide; 2,2,2-trifluoroacetic acid] gave an IC90 of 2200 nM.
`CCc1cc(Nc2nccn3c(-c4ccc(OC)c(F)c4F)cnc23)ccc1C(=O)N1CCN(C(=O)[C@@H]2C[C@@H](O)CN2)CC1` [Example 185, [4-[[3-(2,3-difluoro-4-methoxy-phenyl)imidazo[1,2-a]pyrazin-8-yl]amino]-2-ethyl-phenyl]-[4-[(2S,4R)-4-hydroxypyrrolidine-2-carbonyl]piperazin-1-yl]methanone hydrochloride] showed an IC90 of 220 nM.
Work on `COc1ccc(-c2cnc3c(Nc4ccc(C(=O)N5CCC(C(=O)NCCS(=O)(=O)O)CC5)c(C)c4)nccn23)cc1F` [Example 303, 2-[[1-[4-[[3-(3-fluoro-4-methoxyphenyl)imidazo[1,2-a]pyrazin-8-yl]amino]-2-methylbenzoyl]piperidine-4-carbonyl]amino]ethanesulfo-nic acid] yielded an IC90 of 3500 nM.
Work on `Cc1cc(Nc2nccn3c(-c4ccc(OC(F)F)cc4)cnc23)ccc1C(=O)N1CCN(C(=O)NCCN2CCC2)CC1` [Example 168, N-[2-(azetidin-1-yl)ethyl]-4-[4-[[3-[4-(difluoromethoxy)phenyl]imidazo[1,2-a]pyrazin-8-yl]amino]-2-methyl-benzoyl]piperazine-1-carboxamide formate] yielded an IC90 of 470 nM.
With `CCOC(=O)NC1CCN(C(=O)c2ccc(Nc3nccn4c(-c5ccc(OC(F)F)cc5)cnc34)cc2C)CC1` [Example 11, ethyl (1-(4-((3-(4-(difluoromethoxy)phenyl)imidazo[1,2-a]pyrazin-8-yl)amino)-2-methylbenzoyl)piperidin-4-yl)carbamate] the IC90 was 580 nM.
`Cc1cc(Nc2nccn3c(-c4ccc(OCC#N)c(F)c4Cl)cnc23)ccc1C(=O)N1CCC(C(=O)N2CCN[C@@H](CO)C2)CC1` [Example 539, 2-[3-chloro-2-fluoro-4-[8-[4-[4-[(3R)-3-(hydroxymethyl)piperazine-1-carbonyl]piperidine-1-carbonyl]-3-methylanilino]imidazo[1,2-a]pyrazin-3-yl]phenoxy]acetonitrile; for-mic acid] was tested, and the IC90 was 88 nM.
`COc1ccc(-c2cnc3c(Nc4ccc(C(=O)N5CCN(C(=O)N[C@@H](C)CN)CC5)c(C)c4)nccn23)c(F)c1F` [Example 147, N-[(1S)-2-amino-1-methyl-ethyl]-4-[4-[[3-(2,3-difluoro-4-methoxy-phenyl)imidazo[1,2-a]pyrazin-8-yl]amino]-2-methyl-benzoyl]piperazine-1-carboxamide hydrochloride] gave an IC90 of 210 nM.
For `Cc1cc(Nc2nccn3c(-c4ccc(OC(F)F)cc4)cnc23)ccc1C(=O)N1CCC(C2CNC2)CC1` [Example 20, (4-(azetidin-3-yl)piperidin-1-yl)(4-((3-(4-(difluoromethoxy)phenyl)imidazo[1,2-a]pyrazin-8-yl)amino)-2-methylphenyl)methanone hydrochloride], the IC90 was 160 nM.
Work on `COc1ccc(-c2cnc3c(Nc4ccc(C(=O)N5CCOCC5)c(C)c4)nccn23)cc1` [Example 6, (4-((3-(4-methoxyphenyl)imidazo[1,2-a]pyrazin-8-yl)amino)-2-methylphenyl)(morpholine)methanone] yielded an IC90 of 350 nM.
With `COc1ccc(-c2cnc3c(Nc4ccc(C(=O)N5CCC(C(=O)NCCCN6CCC6)CC5)c(C)c4)nccn23)cc1F` [Example 62, N-(3-(azetidin-1-yl)propyl)-1-(4-((3-(3-fluoro-4-methoxyphenyl)imidazo[1,2-a]pyrazin-8-yl)amino)-2-methylbenzoyl)piperidine-4-carboxamide] the IC90 was 160 nM.

Same assay, conditions: Acinetobacter baumannii, ATCC17978, 16 h, read-out: ATCC17978 IC90, 90% growth inhibitory concentration, Acinetobacter baumannii ATCC17978, Iso-Sensitest broth, OD 600 nm over 16 h
`Cc1cc(Nc2nccn3c(-c4ccc(OC(F)F)cc4)cnc23)ccc1C(=O)N1CCN(C(=O)[C@@H](N)[C@@H](C)O)CC1` [Example 527, (2S,3R)-2-amino-1-[4-[4-[[3-[4-(difluoromethoxy)phenyl]imi-dazo[1,2-a]pyrazin-8-yl]amino]-2-methylbenzoyl]piperazin-1-yl]-3-hydroxybutan-1-one; hydrochloride] was tested, and the IC90 was 600 nM.
Work on `Cc1cc(Nc2nccn3c(-c4ccc(OC(F)F)cc4)cnc23)ccc1C(=O)N1CCN(C(=O)N2CCO[C@H](CN)C2)CC1` [Example 496, [4-[(2R)-2-(aminomethyl)morpholine-4-carbonyl]piperazin-1-yl]-[4-[[3-[4-(difluoromethoxy)phenyl]imi-dazo[1,2-a]pyrazin-8-yl]amino]-2-methylphenyl]methanone; for-mic acid] yielded an IC90 of 330 nM.
`Cc1cnn(CC2CCN(C(=O)c3ccc(Nc4nccn5c(-c6ccc(OC(F)F)cc6)cnc45)cc3C)CC2)c1` [Example 380, [4-[[3-[4-(difluoromethoxy)phenyl]imi-dazo[1,2-a]pyrazin-8-yl]amino]-2-methylphenyl]-[4-[(4-methylpyrazol-1-yl)methyl]piperidin-1-yl]methanone] gave an IC90 of 2800 nM.
With `Cc1cc(Nc2nccn3c(-c4ccc(OC(F)F)cc4)cnc23)ccc1C(=O)N1CCC(Cn2cnnc2)CC1` [Example 354, [4-[[3-[4-(difluoromethoxy)phenyl]imi-dazo[1,2-a]pyrazin-8-yl]amino]-2-methylphenyl]-[4-(1,2,4-triazol-4-ylmethyl)piperidin-1-yl]methanone] the IC90 was 240 nM.
Compound `CCC[C@H](N)C(=O)N1CCN(C(=O)c2ccc(Nc3nccn4c(-c5ccc(OC(F)F)cc5)cnc34)cc2C)CC1` [Example 343, (2S)-2-amino-1-[4-[4-[[3-[4-(difluoromethoxy)phenyl]imi-dazo[1,2-a]pyrazin-8-yl]amino]-2-methylbenzoyl]piperazin-1-yl]pentan-1-one] has an IC90 of 560 nM.
`COc1ccc(-c2cnc3c(Nc4ccc(C(=O)N5CCN(C(=O)C6(F)CCNCC6)CC5)c(C)c4)nccn23)c(F)c1F` [Example 477, [4-[[3-(2,3-difluoro-4-methoxyphenyl)imidazo[1,2-a]pyrazin-8-yl]amino]-2-methylphenyl]-[4-(4-fluoropiperidine-4-carbonyl)piperazin-1-yl]methanone; hydrochloride] was tested, and the IC90 was 120 nM.
Work on `Cc1cc(Nc2nccn3c(-c4ccc(O[C@H](C)C#N)c(F)c4F)cnc23)ccc1C(=O)N1CCN(C(=O)[C@@H]2C[C@@H](O)CN2)CC1` [Example 559, (2R)-2-[2,3-difluoro-4-[8-[4-[4-[(2S,4R)-4-hydroxypyrrolidine-2-carbonyl]piperazine-1-carbonyl]-3-methyl-anilino]imidazo[1,2-a]pyrazin-3-yl]phenoxy]propanenitrile formate] yielded an IC90 of 699 nM.
`Cc1cc(Nc2nccn3c(-c4ccc(OC(F)F)cc4)cnc23)ccc1C(=O)N1CCN(C(=O)CN2CCNCC2)CC1` [Example 347, 1-[4-[4-[[3-[4-(difluoromethoxy)phenyl]imi-dazo[1,2-a]pyrazin-8-yl]amino]-2-methylbenzoyl]piperazin-1-yl]-2-piperazin-1-ylethanone] showed an IC90 of 650 nM.
Compound `Cc1cc(Nc2nccn3c(-c4ccc(OC(F)F)cc4)cnc23)ccc1C(=O)N1CCN(C(=O)[C@@H](N)CC(=O)O)CC1` [Example 448, (3S)-3-amino-4-[4-[4-[[3-[4-(difluoromethoxy)phenyl]imi-dazo[1,2-a]pyrazin-8-yl]amino]-2-methylbenzoyl]piperazin-1-yl]-4-oxobutanoic acid; hydrochloride] has an IC90 of 2200 nM.
Work on `Cc1cc(Nc2nccn3c(-c4ccc(OC(F)F)cc4)cnc23)ccc1C(=O)N1CCC2(CCNCC2)CC1` [Example 359, 3,9-diazaspiro[5.5]undecan-3-yl-[4-[[3-[4-(difluoromethoxy)phenyl]imi-dazo[1,2-a]pyrazin-8-yl]amino]-2-methylphenyl]methanone; hy-drochloride] yielded an IC90 of 410 nM.
`Cc1cc(Nc2nccn3c(-c4ccc(OC(F)F)cc4)cnc23)ccc1C(=O)N1CCN(C(=O)C2(O)CCNCC2)CC1` [Example 490, [4-[[3-[4-(difluoromethoxy)phenyl]imi-dazo[1,2-a]pyrazin-8-yl]amino]-2-methylphenyl]-[4-(4-hydroxypiperidine-4-carbonyl)piperazin-1-yl]methanone; hydrochloride] was tested, and the IC90 was 280 nM.
In the case of `Cc1cc(Nc2nccn3c(-c4ccc(OC(F)F)cc4)cnc23)ccc1C(=O)N1CCC(C(=O)NCC2CN(S(C)(=O)=O)C2)CC1` [Example 306, 1-[4-[[3-[4-(difluoromethoxy)phenyl]imi-dazo[1,2-a]pyrazin-8-yl]amino]-2-methylbenzoyl]-N-[(1-methylsulfonylazetidin-3-yl)methyl]piperidine-4-carboxamide], the IC90 is reported as 95 nM.
`CN[C@@H](C)C(=O)N1CCN(C(=O)c2ccc(Nc3nccn4c(-c5ccc(OC(F)F)cc5)cnc34)cc2C)CC1` [Example 311, (2S)-1-[4-[4-[[3-[4-(difluoromethoxy)phenyl]imi-dazo[1,2-a]pyrazin-8-yl]amino]-2-methylbenzoyl]piperazin-1-yl]-2-(methylamino)propan-1-one; hydrochloride] gave an IC90 of 190 nM.
`Cc1cc(Nc2nccn3c(-c4ccc(OC(F)F)cc4)cnc23)ccc1C(=O)N1CCC(Cn2ccnc2)CC1` [Example 353, [4-[[3-[4-(difluoromethoxy)phenyl]imi-dazo[1,2-a]pyrazin-8-yl]amino]-2-methylphenyl]-[4-(imidazol-1-ylmethyl)piperidin-1-yl]methanone] was tested, and the IC90 was 240 nM.
With `Cc1cc(Nc2nccn3c(-c4ccc(OCC#N)c(F)c4F)cnc23)ccc1C(=O)N1CCC(C(=O)OC[C@H]2CNCCN2)CC1` [Example 499, formic acid; [(2R)-piperazin-2-yl]methyl 1-[4-[[3-[4-(cyanomethoxy)-2,3-difluorophenyl]imidazo[1,2-a]pyrazin-8-yl]amino]-2-methylbenzoyl]piperidine-4-carboxylate] the IC90 was 360 nM.
